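How tested: cells in 96-well plates exposed to compound for 48 hours at five concentrations. GI50: concentration for 50% inhibition of growth. TGI is the concentration that stops growth completely.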
Key:
Test in all cases: NCI anticancer screen, dose series, 48 h; in the data active means GI50 below about 0.43 µM; inactive means the rest
NCI-H226 lung = system: NCI-H226 lung
NCI-H23 lung = system: NCI-H23 lung
NCI-H460 lung = system: NCI-H460 lung
NCI-H522 lung = system: NCI-H522 lung
NCI/ADR-RES ovarian = system: NCI/ADR-RES ovarian
OVCAR-3 ovarian = system: OVCAR-3 ovarian
OVCAR-4 ovarian = system: OVCAR-4 ovarian
OVCAR-5 ovarian = system: OVCAR-5 ovarian
OVCAR-8 ovarian = system: OVCAR-8 ovarian
PC-3 prostate = system: PC-3 prostate
RPMI-8226 leukemia = system: RPMI-8226 leukemia
RXF 393 renal = system: RXF 393 renal
SF-268 CNS = system: SF-268 CNS
SF-295 CNS = system: SF-295 CNS
SF-539 CNS = system: SF-539 CNS
SK-MEL-2 melanoma = system: SK-MEL-2 melanoma
SK-MEL-28 melanoma = system: SK-MEL-28 melanoma
SK-MEL-5 melanoma = system: SK-MEL-5 melanoma
SK-OV-3 ovarian = system: SK-OV-3 ovarian
SN12C renal = system: SN12C renal
SNB-19 CNS = system: SNB-19 CNS
SNB-75 CNS = system: SNB-75 CNS
SR leukemia = system: SR leukemia
SW-620 colon = system: SW-620 colon
T-47D breast = system: T-47D breast
TK-10 renal = system: TK-10 renal
U251 CNS = system: U251 CNS
UACC-257 melanoma = system: UACC-257 melanoma
UACC-62 melanoma = system: UACC-62 melanoma
UO-31 renal = system: UO-31 renal

CN1C(=O)N(C)C2SC(N/N=C/c3cccs3)=NC21 (centres undefined)
17.6 µM: TGI (RXF 393 renal)
inactive: GI50 (NCI-H23 lung) 17.7 µM | GI50 (NCI-H460 lung) 3.98 µM | GI50 (NCI-H522 lung) 2.74 µM | GI50 (NCI/ADR-RES ovarian) 3.91 µM | GI50 (OVCAR-3 ovarian) 3.43 µM | GI50 (OVCAR-4 ovarian) > 100 µM | GI50 (OVCAR-5 ovarian) 6.45 µM | GI50 (OVCAR-8 ovarian) 14.5 µM | GI50 (PC-3 prostate) 6.77 µM | GI50 (RPMI-8226 leukemia) 9.1 µM | GI50 (RXF 393 renal) 2.09 µM | GI50 (SF-268 CNS) 14.3 µM | GI50 (SF-295 CNS) 3.92 µM | GI50 (SF-539 CNS) 3.42 µM | GI50 (SK-MEL-2 melanoma) 2.5 µM | GI50 (SK-MEL-28 melanoma) 6.38 µM | GI50 (SK-MEL-5 melanoma) 2.87 µM | GI50 (SK-OV-3 ovarian) 7.74 µM | GI50 (SN12C renal) > 100 µM | GI50 (SNB-19 CNS) 11.4 µM | GI50 (SNB-75 CNS) 1.66 µM | GI50 (SR leukemia) 2.47 µM | GI50 (SW-620 colon) 3.68 µM | GI50 (T-47D breast) 4.56 µM | GI50 (TK-10 renal) > 100 µM | GI50 (U251 CNS) 4.46 µM | GI50 (UACC-257 melanoma) > 100 µM | GI50 (UACC-62 melanoma) 3.69 µM | GI50 (UO-31 renal) 9.9 µM
> 100 µM: TGI (NCI-H226 lung) | TGI (NCI-H23 lung) | TGI (NCI-H460 lung) | TGI (OVCAR-4 ovarian) | TGI (OVCAR-8 ovarian) | TGI (PC-3 prostate) | TGI (RPMI-8226 leukemia) | TGI (SF-268 CNS) | TGI (SF-295 CNS) | TGI (SK-MEL-28 melanoma) | TGI (SK-MEL-5 melanoma) | TGI (SN12C renal) | TGI (SNB-19 CNS) | TGI (SR leukemia) | TGI (SW-620 colon) | TGI (T-47D breast) | TGI (TK-10 renal) | TGI (U251 CNS) | TGI (UACC-257 melanoma) | TGI (UACC-62 melanoma) | TGI (UO-31 renal)
7.61 µM: TGI (SNB-75 CNS)
10.4 µM: TGI (NCI-H522 lung)
92 µM: TGI (SK-OV-3 ovarian)
86.2 µM: TGI (OVCAR-5 ovarian)
16.9 µM: TGI (SF-539 CNS)
38.2 µM: TGI (NCI/ADR-RES ovarian)
7.27 µM: TGI (SK-MEL-2 melanoma)
30.8 µM: TGI (OVCAR-3 ovarian)

From PubChem BioAssay (NCI)
